Results reported in patent US20150315146A1, “USE OF SUBSTITUTED 1-(ARYL ETHYNYL)-, 1-(HETEROARYL ETHYNYL)-, 1-(HETEROCYCLYL ETHYNYL)- AND 1-(CYCLOALKENYLETHYNYL)-BICYCLOALKANOLS AS ACTIVE AGENTS AGAINST ABIOTIC PLANT STRESS” (BAYER CROPSCIENCE AG, priority 2012, published 2015).

What was measured:
Experiment in all cases: Drought stress test on potted crop plants in greenhouse, spray application, efficacy from damage values
Type in all cases: in vivo
Brassica napus (BRSNS) = settings: spray at 600 l/ha water, averages from one to three trials
Description: (§1) Seeds of monocotyledonous and dicotyledonous crop plants were laid out in sandy loam in wood-fiber pots, covered with soil or sand and cultivated in a greenhouse under good growth conditions. The test plants were treated at the early leaf stage (BBCH10-BBCH13). To assure uniform water supply before commencement of stress, the potted plants were supplied with water by dam irrigation prior to substance application. The compounds according to the invention, formulated in the form of wettable powders (WP), were sprayed onto the green parts of the plants as an aqueous suspension at an equivalent water application rate of 600 l/ha with addition of 0.2% wetting agent (e.g. agrotin). Substance application was followed immediately by stress treatment of the plants. For this purpose, the pots were transferred into plastic inserts in order to prevent them from subsequently drying out too quickly. Drought stress was induced by gradual drying out under the following conditions: “Day”: 14 hours with illumination at 26° C. “Night”: 10 hours without illumination at 18° C. The duration of the respective stress phases was guided mainly by the state of the untreated, stressed control plants and thus varied from crop to crop. It was ended (by re-irrigating and transfer to a greenhouse with good growth conditions) as soon as irreversible damage was observed on the untreated, stressed control plants. In the case of dicotyledonous crops, for example oilseed rape and soya, the duration of the drought stress phase varied between 3 and 6 days, in the case of monocotyledonous crops, for example wheat, barley or corn, between 6 and 11 days. The end of the stress phase was followed by an approx. 5-7-day recovery phase, during which the plants were once again kept under good growth conditions in a greenhouse. In order to rule out any influence of the effects observed by any fungicidal or insecticidal action of the test compounds, it was additionally ensured that the tests proceeded without fungal infection or insect infestation. After the recovery phase had ended, the intensities of damage were analyzed in visual comparison to untreated, unstressed controls of the same age. The intensity of damage was first recorded as a percentage (100%=plants have died, 0%=like control plants). These values were then used to calculate the efficacy of the test compounds (=percentage reduction in the intensity of damage as a result of substance application) by the following formula: [formula] EF: efficacy (%) DVus: damage value of the untreated, stressed control DVts: damage value of the plants treated with test compound In each trial, 3 pots per crop and dosage were treated and evaluated; the resulting efficacies are thus averages. The values in tables A-1 to A-3 below are again averages from one to three independent trials. BRSNS=Brassica napus TRZAS=Triticum aestivum ZEAMX=Zea mays

[1] = tested on: Triticum aestivum (TRZAS); settings: topical, percentage reduction in the intensity of damage, read-out: EF (TRZAS) efficacy; for pest or weed control at 250 g/ha: dosage 250 g/ha
Description: as §1

Zea mays (ZEAMX) = settings: percentage reduction in the intensity of damage
Description: as §1

Row | SMILES | EF (BRSNS): efficacy = percentage reduction in the intensity of damage as a result of substance application (Brassica napus (BRSNS); dosage 25 g/ha) | pest or weed control at 250 g/ha [1] | EF (ZEAMX) efficacy (Zea mays (ZEAMX); dosage 250 g/ha) | pest or weed control at 25 g/ha ([1]; dosage 25 g/ha) | EF (BRSNS): efficacy = percentage reduction in the intensity of damage as a result of substance application (Brassica napus (BRSNS); dosage 250 g/ha) | EF (ZEAMX) efficacy (Zea mays (ZEAMX); dosage 25 g/ha)
1 | CC12CCC(C1)C(C)(C)C2(O)C#Cc1ccccc1F (stereo not drawn) [I.1-1] | >5% | > 5% | >5% | – | – | –
2 | COC(=O)c1ccccc1C#CC1(O)C2CCC(C2)C12CC2 (stereo not drawn) [I.29-26] | – | – | – | > 5% | – | –
3 | CC12CCC(C1)C(C)(C)C2(O)C#Cc1ccccc1NS(C)(=O)=O (stereo not drawn) [I.1-88] | – | – | – | – | >5% | –
4 | CC(=O)Oc1ccccc1C#CC1(O)C2(C)CCC(C2)C1(C)C (stereo not drawn) [I.1-79] | – | > 5% | – | – | >5% | >5%
5 | COC(=O)c1ccccc1C#CC1(O)C2CC3CC(C2)CC1C3 (stereo not drawn) [I.19-30] | >5% | > 5% | – | – | – | –
6 | COC(=O)c1ccccc1C#CC1(O)C(C)CCC2C1C2(C)C (stereo not drawn) [I.35-26] | – | > 5% | >5% | – | – | –
7 | CC12CCC(C1)C(C)(C)C2(O)C#Cc1ccccc1CC#N (stereo not drawn) [I.1-74] | – | > 5% | >5% | – | >5% | –
8 | COC(=O)c1ccccc1C#CC1(O)C2(C)CCC(C2)C1(C)C (stereo not drawn) [I.1-116] | >5% | > 5% | – | – | – | >5%
9 | COC(=O)c1cc(C)ccc1C#CC1(O)CC2CCC1C2 (stereo not drawn) [I.21-33] | – | > 5% | >5% | – | >5% | –
